Source: patent US20100041089A1, “IMPROVED METHOD FOR DETECTING CHEMICAL […]” (priority 2006, published 2010)

Tested on: yeast genes (expressed mRNA)
Test: DNA chip measurement of expressed mRNA of yeast genes after culture with a toxic chemical substance
Format: cell-based, Saccharomyces cerevisiae S288C
Method in brief: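 Expression is given as treated/untreated fluorescence ratio on a whole-genome yeast DNA chip, a ratio of two or more being significant. Log-phase S288C cultures in YPD at 25 °C received the chemical for 2 h at a dose that slows growth without killing. mRNA was reverse-transcribed with Cy3- or Cy5-dUTP.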

SMILES: C=CC=O [(14), Acrolein]
- The level of expressed mRNA in the presence of chemical substance/The level of expressed mRNA in the absence of chemical substance (yeast gene YGL053W, cultured two hours with substance): 1.1
- The level of expressed mRNA in the presence of chemical substance/The level of expressed mRNA in the absence of chemical substance (yeast gene YGL091C, DNA repair protein genes, cultured two hours with substance): 3.1
- The level of expressed mRNA in the presence of chemical substance/The level of expressed mRNA in the absence of chemical substance (yeast gene YGL121C, cultured two hours with substance): 5.8
- The level of expressed mRNA in the presence of chemical substance/The level of expressed mRNA in the absence of chemical substance (yeast gene YGL136C, cultured two hours with substance): 2.3
- The level of expressed mRNA in the presence of chemical substance/The level of expressed mRNA in the absence of chemical substance (yeast gene YGL199C, cultured two hours with substance): 0.8
- The level of expressed mRNA in the presence of chemical substance/The level of expressed mRNA in the absence of chemical substance (yeast gene YGR043C, cultured for two hours with substance): 4.1
- The level of expressed mRNA in the presence of chemical substance/The level of expressed mRNA in the absence of chemical substance (yeast gene YGR064W, cultured two hours with the chemical substance): 2.1
- The level of expressed mRNA in the presence of chemical substance/The level of expressed mRNA in the absence of chemical substance (yeast gene YGR101W, cultured two hours with substance): 0.9
- The level of expressed mRNA in the presence of chemical substance/The level of expressed mRNA in the absence of chemical substance (yeast gene YGR110W, cultured two hours with substance): 2.8
- The level of expressed mRNA in the presence of chemical substance/The level of expressed mRNA in the absence of chemical substance (yeast gene YGR130C, cultured two hours with substance): 0.9
- The level of expressed mRNA in the presence of chemical substance/The level of expressed mRNA in the absence of chemical substance (yeast gene YGR146C, cultured two hours with substance): 1.3
- The level of expressed mRNA in the presence of chemical substance/The level of expressed mRNA in the absence of chemical substance (yeast gene YGR154C, cultured two hours with substance): 2.2
- The level of expressed mRNA in the presence of chemical substance/The level of expressed mRNA in the absence of chemical substance (yeast gene YGR209C (detoxification protein gene)): 5.0
- The level of expressed mRNA in the presence of chemical substance/The level of expressed mRNA in the absence of chemical substance (yeast gene YGR221C, cultured two hours with substance): 1.4
- The level of expressed mRNA in the presence of chemical substance/The level of expressed mRNA in the absence of chemical substance (yeast gene YHR029C, cultured two hours with substance): 3.5
- The level of expressed mRNA in the presence of chemical substance/The level of expressed mRNA in the absence of chemical substance (yeast gene YHR138C, cultured two hours with substance): 3.4
- The level of expressed mRNA in the presence of chemical substance/The level of expressed mRNA in the absence of chemical substance (yeast gene YHR179W, cultured for two hours with substance): 5.8
- The level of expressed mRNA in the presence of chemical substance/The level of expressed mRNA in the absence of chemical substance (yeast gene YHR199C, cultured two hours with substance): 2.0
- The level of expressed mRNA in the presence of chemical substance/The level of expressed mRNA in the absence of chemical substance (yeast gene YHR209W, cultured two hours with substance): 2.2
- The level of expressed mRNA in the presence of chemical substance/The level of expressed mRNA in the absence of chemical substance (yeast gene YIL015W): 5.9
- The level of expressed mRNA in the presence of chemical substance/The level of expressed mRNA in the absence of chemical substance (yeast gene YIL023C, cultured two hours with substance): 0.7
- The level of expressed mRNA in the presence of chemical substance/The level of expressed mRNA in the absence of chemical substance (yeast gene YIL024C, cultured two hours with substance): 1.5
- The level of expressed mRNA in the presence of chemical substance/The level of expressed mRNA in the absence of chemical substance (yeast gene YIL041W, cultured two hours with substance): 1.3
- The level of expressed mRNA in the presence of chemical substance/The level of expressed mRNA in the absence of chemical substance (yeast gene YIL057C, cultured two hours with the chemical substance): 1.5
- The level of expressed mRNA in the presence of chemical substance/The level of expressed mRNA in the absence of chemical substance (yeast gene YIL087C, cultured two hours with substance): 1.3
- The level of expressed mRNA in the presence of chemical substance/The level of expressed mRNA in the absence of chemical substance (yeast gene YIL117C, cultured two hours with substance): 2.6
- The level of expressed mRNA in the presence of chemical substance/The level of expressed mRNA in the absence of chemical substance (yeast gene YJL020C, cultured two hours with substance): 1.2
- The level of expressed mRNA in the presence of chemical substance/The level of expressed mRNA in the absence of chemical substance (yeast gene YJL036W, cultured two hours with substance): 1.5
- The level of expressed mRNA in the presence of chemical substance/The level of expressed mRNA in the absence of chemical substance (yeast gene YJL057C, cultured two hours with substance): 1.6
- The level of expressed mRNA in the presence of chemical substance/The level of expressed mRNA in the absence of chemical substance (yeast gene YJL066C, cultured two hours with substance): 1.0
- The level of expressed mRNA in the presence of chemical substance/The level of expressed mRNA in the absence of chemical substance (yeast gene YJL082W, cultured two hours with substance): 0.5
- The level of expressed mRNA in the presence of chemical substance/The level of expressed mRNA in the absence of chemical substance (yeast gene YJL108C, cultured two hours with substance): 1.0
- The level of expressed mRNA in the presence of chemical substance/The level of expressed mRNA in the absence of chemical substance (yeast gene YJL149W, cultured two hours with substance): 1.1
- The level of expressed mRNA in the presence of chemical substance/The level of expressed mRNA in the absence of chemical substance (yeast gene YJL151C, cultured two hours with substance): 1.3
- The level of expressed mRNA in the presence of chemical substance/The level of expressed mRNA in the absence of chemical substance (yeast gene YJL152W, cultured two hours with substance): 1.4
- The level of expressed mRNA in the presence of chemical substance/The level of expressed mRNA in the absence of chemical substance (yeast gene YJL161W, cultured two hours with substance): 2.2
- The level of expressed mRNA in the presence of chemical substance/The level of expressed mRNA in the absence of chemical substance (yeast gene YJL171C, cultured two hours with substance): 1.0
- The level of expressed mRNA in the presence of chemical substance/The level of expressed mRNA in the absence of chemical substance (yeast gene YJL186W, cultured two hours with substance): 0.8
- The level of expressed mRNA in the presence of chemical substance/The level of expressed mRNA in the absence of chemical substance (yeast gene YJR008W, cultured two hours with substance): 1.2
- The level of expressed mRNA in the presence of chemical substance/The level of expressed mRNA in the absence of chemical substance (yeast gene YJR048W, cultured for two hours with substance): 2.5
- The level of expressed mRNA in the presence of chemical substance/The level of expressed mRNA in the absence of chemical substance (yeast gene YJR054W, cultured two hours with substance): 1.2
- The level of expressed mRNA in the presence of chemical substance/The level of expressed mRNA in the absence of chemical substance (yeast gene YKL065C, cultured two hours with substance): 2.1
